In the Kinase Knowledgebase extract (Sharma et al. 2016):

The compounds below were run against PIK3CA (human) (UniProt P42336) (assay: Inhibition of PIK3CA Kinase Activity).
Chain of PIK3CA (human) (P42336 whole entry, looked up): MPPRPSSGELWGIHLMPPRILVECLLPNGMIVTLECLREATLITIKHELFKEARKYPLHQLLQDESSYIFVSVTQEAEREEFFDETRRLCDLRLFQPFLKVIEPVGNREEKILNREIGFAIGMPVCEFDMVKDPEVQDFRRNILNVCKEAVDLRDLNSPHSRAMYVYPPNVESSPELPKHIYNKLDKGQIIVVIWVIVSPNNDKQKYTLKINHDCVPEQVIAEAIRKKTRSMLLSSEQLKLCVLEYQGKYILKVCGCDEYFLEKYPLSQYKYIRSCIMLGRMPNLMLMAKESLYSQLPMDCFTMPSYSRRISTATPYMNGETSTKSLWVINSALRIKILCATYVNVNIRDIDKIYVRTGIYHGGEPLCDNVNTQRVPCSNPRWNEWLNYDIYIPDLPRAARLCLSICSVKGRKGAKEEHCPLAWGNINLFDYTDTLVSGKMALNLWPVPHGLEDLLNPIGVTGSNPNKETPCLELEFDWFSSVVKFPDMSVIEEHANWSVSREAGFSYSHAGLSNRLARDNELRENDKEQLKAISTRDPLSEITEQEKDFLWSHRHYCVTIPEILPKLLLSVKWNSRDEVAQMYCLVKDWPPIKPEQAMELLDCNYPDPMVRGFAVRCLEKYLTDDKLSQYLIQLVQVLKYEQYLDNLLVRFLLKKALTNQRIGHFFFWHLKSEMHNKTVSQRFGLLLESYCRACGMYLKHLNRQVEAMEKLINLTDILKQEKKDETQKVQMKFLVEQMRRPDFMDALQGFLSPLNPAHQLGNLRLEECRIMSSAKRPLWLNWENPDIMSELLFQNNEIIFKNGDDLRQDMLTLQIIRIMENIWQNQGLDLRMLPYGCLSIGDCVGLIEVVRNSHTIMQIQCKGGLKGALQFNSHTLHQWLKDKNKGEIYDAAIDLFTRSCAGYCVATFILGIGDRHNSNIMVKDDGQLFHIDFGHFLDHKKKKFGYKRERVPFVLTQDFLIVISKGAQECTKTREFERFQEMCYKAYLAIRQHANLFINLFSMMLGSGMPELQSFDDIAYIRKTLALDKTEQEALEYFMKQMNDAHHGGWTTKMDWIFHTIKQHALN

| Structure (SMILES) | IC50 [µM] |
| --- | --- |
| Cc1nc2ccc(-c3ccc4c(c3)CN(c3ncnc5ccc(O)cc35)CCO4)cc2[nH]1 | 0.05 to 0.25 |
| CN(C)CCNS(=O)(=O)c1cc(-c2ccc3c(c2)CN(c2ncnc4c2CC(C)(C)CC4)CCO3)cnc1N | 0.05 to 0.25 |
| Cc1nc2ccc(-c3ccc4c(c3)CN(c3ncnc5sccc35)CCO4)cc2[nH]1 | 0.25 to 1 |
| CCNc1nc2ccc(-c3ccc4c(c3)CN(c3cc(Nc5cccc(OC)c5)ncn3)CCO4)cc2[nH]1 | 0.25 to 1 |
| Cc1nc(CN(C)C)nc(N2CCOc3ccc(-c4ccc5scnc5c4)cc3C2)c1Cc1ccc(F)cc1 | 0.25 to 1 |
| Cc1nc2ccc(-c3ccc4c(c3)CN(c3ccncn3)CCO4)cc2[nH]1 | 0.25 to 1 |
| Cc1nc2c(c(N3CCOc4ccc(-c5cnc6nc(C7CC7)[nH]c6c5)cc4C3)n1)CC(C)(C)CC2 | 0.05 to 0.25 |
| Cc1nc2ccc(-c3ccc4c(c3)CN(c3ncnc5ccc(F)cc35)CCO4)cc2[nH]1 | 0.05 to 0.25 |
| Cc1ncnc(N2CCOc3ccc(-c4ccc5sc(N)nc5c4)cc3C2)c1Cc1ccc(F)cc1 | 0.05 to 0.25 |
| CC(=O)OCc1nc(C)c(C(C)C)c(N2CCOc3ccc(-c4ccc5nc(C)[nH]c5c4)cc3C2)n1 | 0.05 to 0.25 |
| CC1(C)CCc2ncnc(N3CCOc4ccc(-c5cnc6nccnc6c5)cc4C3)c2C1 | 0.25 to 1 |
| Cc1nc2ccc(-c3ccc4c(c3)CN(c3nc(-c5ccccn5)nc5c3CC(C)(C)CC5)CCO4)cc2[nH]1 | 0.25 to 1 |
| Nc1nc2ccc(-c3ccc4c(c3)CN(c3nc(-c5ccccc5)nc5ccccc35)CCO4)cc2[nH]1 | 0.05 to 0.25 |
| Cc1nc2ncc(-c3ccc4c(c3)CN(c3nc(CNCC(F)(F)F)nc5c3CC(C)(C)CC5)CCO4)cc2[nH]1 | 0.05 to 0.25 |
| CC1(C)CCc2ncnc(N3CCOc4ccc(-c5cnc(N)c(S(=O)(=O)N[C@H]6CC[C@H](N)CC6)c5)cc4C3)c2C1 | 0.01 to 0.05 |
| CC[C@H]1CCCc2c(ncnc2N2CCOc3ccc(-c4cnc5nc(C)[nH]c5c4)cc3C2)C1 | 0.01 to 0.05 |
| Cc1cccc(Cl)c1S(=O)(=O)Nc1cc(-c2ccc3c(c2)CN(c2ncnc4c2CC(C)(C)CC4)CCO3)cnc1Cl | 0.05 to 0.25 |
| O=C(CCCN1CCCCC1)Nc1nc2ccc(-c3ccc4c(c3)CN(c3ccnc5ccccc35)CCO4)cc2[nH]1 | 0.05 to 0.25 |
| Cc1nc2ccc(-c3ccc4c(c3)CN(c3ncnc(C)c3C)CCO4)cc2[nH]1 | 0.05 to 0.25 |
| Cc1nc2cc(-c3ccc4c(c3)CN(c3nc(CN(C)C)nc5c3CC(C)(C)CC5)CCO4)c(F)cc2[nH]1 | 0.05 to 0.25 |
| Cc1nc2ccc(-c3ccc4c(c3)CN(c3ncnc(C)c3Cc3ccc(Cl)cc3)CCO4)cc2[nH]1 | 0.01 to 0.05 |
| CC(=O)Nc1nc2cc(-c3ccc4c(c3)CN(c3nc(CN(C)C)nc5c3CC(C)(C)CC5)CCO4)cnc2s1 | 0.01 to 0.05 |
| COCCc1c(C)nc(CN(C)C)nc1N1CCOc2ccc(-c3cnc4sc(N)nc4c3)cc2C1 | 0.01 to 0.05 |
| CCCNC(=O)c1ccc(-c2ccc3c(c2)CN(c2ccnc4ccccc24)CCO3)cc1 | 0.25 to 1 |
| Cc1ncnc(N2CCOc3ccc(-c4ccc(C(=O)NCC(F)F)cc4)cc3C2)c1Cc1ccc(F)cc1 | 0.05 to 0.25 |

| Structure (SMILES) | IC50 [µM] |
| --- | --- |
| CCc1nc2cc(-c3ccc4c(c3)CN(c3ncnc5c3CC(C)(C)CC5)CCO4)cnc2[nH]1 | 0.01 to 0.05 |
| Cc1ncnc(N2CCOc3ccc(-c4ccc5nc(N)nn5c4)cc3C2)c1Cc1ccc(F)cc1 | 0.05 to 0.25 |
| CC1(C)CCc2ncnc(N3CCOc4ccc(-c5cnc(N)c(S(=O)(=O)NC[C@@H]6CCCN6)c5)cc4C3)c2C1 | 0.05 to 0.25 |
| CNC(=O)c1ccc(-c2ccc3c(c2)CN(c2ncnc(C)c2Cc2ccc(F)cc2)CCO3)cc1 | 0.01 to 0.05 |
| CC1(C)CCc2ncnc(N3CCOc4ccc(-c5cnc(N)c(S(=O)(=O)NCC(O)C(F)(F)F)c5)cc4C3)c2C1 (stereo unspecified) | 0.01 to 0.05 |
| CC1=Cc2ncnc(N3CCOc4ccc(-c5cnc(N)c(S(=O)(=O)NCC6CCN(C)CC6)c5)cc4C3)c2CC1(C)C | 0.05 to 0.25 |
| CC1(C)CCc2ncnc(N3CCOc4ccc(-c5cnc(N)c(S(=O)(=O)N6CCC(C)(N)C6)c5)cc4C3)c2C1 (stereo unspecified) | 0.01 to 0.05 |
| Cn1c(N)nc2cc(-c3ccc4c(c3)CN(c3ccnc5ccccc35)CCO4)ccc21 | 0.25 to 1 |
| CC1(C)CCc2ncnc(N3CCOc4ccc(-c5cnc(N)c(S(=O)(=O)O)c5)cc4C3)c2C1 | 0.05 to 0.25 |
| CNc1ncc(-c2ccc3c(c2)CN(c2ncnc4c2CC(C)(C)CC4)CCO3)cc1S(=O)(=O)NCCO | 0.01 to 0.05 |
| CC1(C)CCc2ncnc(N3CCOc4ccc(-c5cnc(N)c(S(=O)(=O)NC6CCNCC6)c5)cc4C3)c2C1 | 0.05 to 0.25 |
| Cc1nc2ccc(-c3ccc4c(c3)CN(c3cc(C(C)C)ncn3)CCO4)cc2[nH]1 | 0.25 to 1 |
| Cc1nc2ncc(-c3ccc4c(c3)CN(c3ncnc(C)c3C)CCO4)cc2[nH]1 | 0.05 to 0.25 |
| COc1ccc2c(N3CCOc4ccc(-c5ccc(-c6nc7ccccc7[nH]6)cc5)cc4C3)nc(C)nc2c1 | 0.25 to 1 |
| COc1c(Cl)cc2c(N3CCOc4ccc(-c5ccc6nc(C)[nH]c6c5)cc4C3)ncnc2c1OC | 0.05 to 0.25 |
| COC1Cc2nc(CN(C)C)nc(N3CCOc4ccc(-c5ccc6scnc6c5)cc4C3)c2CC1(C)C (stereo unspecified) | 0.25 to 1 |
| CCc1c(C)ncnc1N1CCOc2ccc(-c3ccc4nc(C)[nH]c4c3)cc2C1 | 0.05 to 0.25 |
| Cc1nc2ncc(-c3ccc4c(c3)CN(c3nc(CNCC(C)C)nc5c3CC(C)(C)CC5)CCO4)cc2[nH]1 | 0.01 to 0.05 |
| CC(C)(N)CNS(=O)(=O)c1cc(-c2ccc3c(c2)CN(c2ncnc4c2CC(C)(C)CC4)CCO3)cnc1N | 0.05 to 0.25 |
| COC(=O)Nc1nc2ccc(-c3ccc4c(c3)CN(c3nc(C)nc5ccccc35)CCO4)cc2[nH]1 | 0.01 to 0.05 |
| COCC1CCc2c(ncnc2N2CCOc3ccc(-c4cnc5nc(C)[nH]c5c4)cc3C2)C1 (stereo unspecified) | 0.01 to 0.05 |
| CC(C)(O)CC[S+]([O-])c1cc(-c2ccc3c(c2)CN(c2ncnc4c2CC(C)(C)CC4)CCO3)cnc1N (stereo unspecified) | 0.05 to 0.25 |
| CC1(C)CCc2ncnc(N3CCOc4ccc(-c5cncc(NS(C)(=O)=O)c5)cc4C3)c2C1 | 0.05 to 0.25 |
| Cc1nc2cc(-c3ccc4c(c3)CN(c3nc(CN(C)C)nc(C)c3-c3ccccc3)CCO4)ccc2[nH]1 | 0.05 to 0.25 |

The next lines start with the values.

| IC50 [µM] | Structure (SMILES) |
| --- | --- |
| 0.01 to 0.05 | CCc1c(C)nc(CN(C)C)nc1N1CCOc2ccc(-c3ccc4[nH]c(C)nc4c3)cc2C1 |
| ≤ 0.01 | COC(=O)Nc1nc2ccc(-c3ccc4c(c3)CN(c3nc(CN(C)C)nc5c3CC(C)(C)CC5)CCO4)cc2[nH]1 |
| 0.01 to 0.05 | COc1ccc(-c2ccc3c(c2)CN(c2nc(CN(C)C)nc(C)c2C(C)C)CCO3)cc1NS(C)(=O)=O |
| ≤ 0.01 | Cc1nc2ncc(-c3ccc4c(c3)CN(c3nc(CN[C@@H](C)C(=O)O)nc5c3CC(C)(C)CC5)CCO4)cc2[nH]1 |
| 0.01 to 0.05 | CC[C@@H](C)NCc1nc2c(c(N3CCOc4ccc(-c5cnc6nc(C)[nH]c6c5)cc4C3)n1)CC(C)(C)CC2 |
| 0.01 to 0.05 | Cc1nc2ccc(-c3ccc4c(c3)CN(c3nc(CN(C)C)nc(C)c3C)CCO4)cc2[nH]1 |
| 0.01 to 0.05 | CCNc1nc(C)nc(N2CCOc3ccc(-c4cnc5nc(C)[nH]c5c4)cc3C2)c1C |
| 0.01 to 0.05 | Cc1nc2ccc(-c3ccc4c(c3)CN(c3ncnc(C)c3C(C)c3ccccc3)CCO4)cc2[nH]1 (stereo unspecified) |
| 0.01 to 0.05 | Cc1nc2ncc(-c3ccc4c(c3)CN(c3ncnc5c3CC(C)CC5)CCO4)cc2[nH]1 (stereo unspecified) |
| 0.01 to 0.05 | CCNc1nc2ccc(-c3ccc4c(c3)CN(c3nc(C)nc5cc(OC)c(OC)cc35)CCO4)cc2[nH]1 |
| 0.01 to 0.05 | Cc1nc2ccc(-c3ccc4c(c3)CN(c3nc(CNC5CCC5)nc5c3CC(C)(C)CC5)CCO4)cc2[nH]1 |
| 0.01 to 0.05 | CC1(C)CCc2ncnc(N3CCOc4ccc(-c5cnc(N)c(S(=O)(=O)NCC6CCCNC6)c5)cc4C3)c2C1 (stereo unspecified) |
| ≤ 0.01 | Nc1nc2ncc(-c3ccc4c(c3)CN(c3ncnc5ccc(Br)cc35)CCO4)cc2[nH]1 |
| 0.01 to 0.05 | C[C@H](CO)CS(=O)(=O)c1cc(-c2ccc3c(c2)CN(c2ncnc4c2CC(C)(C)CC4)CCO3)cnc1N |
| 0.01 to 0.05 | CC1(C)C=Cc2ncnc(N3CCOc4ccc(-c5cnc6nc(C7CC7)[nH]c6c5)cc4C3)c2C1 |
| ≤ 0.01 | CCNc1nc2ccc(-c3ccc4c(c3)CN(c3ncnc(C)c3Cc3ccc(F)cc3)CCO4)cc2[nH]1 |
| 0.01 to 0.05 | CC1(C)CCc2ncnc(N3CCOc4ccc(-c5cnc(N)c(S(=O)(=O)NC6CNC6)c5)cc4C3)c2C1 |
| ≤ 0.01 | Cc1nc2ncc(-c3ccc4c(c3)CN(c3nc(CN5CCCCC5)nc5c3CC(C)(C)CC5)CCO4)cc2[nH]1 |
| 0.01 to 0.05 | Cc1nc2ncc(-c3ccc4c(c3)CN(c3ncnc5c3CC[C@H](C)C5)CCO4)cc2[nH]1 |

| IC50 [µM] | Structure (SMILES) |
| --- | --- |
| 0.01 to 0.05 | Cc1nc2ncc(-c3ccc4c(c3)CN(c3ncnc5c3CC(C)(C)C=C5)CCO4)cc2[nH]1 |
| 0.01 to 0.05 | Nc1nc2ccc(-c3ccc4c(c3)CN(c3ccnc5ccccc35)CCO4)cc2[nH]1 |
| ≤ 0.01 | CC[C@H]1CCc2c(ncnc2N2CCOc3ccc(-c4cnc5nc(NC(=O)OC)[nH]c5c4)cc3C2)C1 |
| 0.01 to 0.05 | Cc1nc2ccc(-c3ccc4c(c3)CN(c3ncnc5cc(F)ccc35)CCO4)cc2[nH]1 |
| 0.01 to 0.05 | CC1(C)CCc2ncnc(N3CCOc4ccc(-c5cnc(N)c(S(=O)(=O)N6CCCC(O)C6)c5)cc4C3)c2C1 (stereo unspecified) |
| ≤ 0.01 | Cc1nc(N)nc(N2CCOc3ccc(-c4cnc5sc(N)nc5c4)cc3C2)c1Cc1ccc(F)cc1 |
| 0.01 to 0.05 | CCC1CCc2ncnc(N3CCOc4ccc(-c5ccc6nc(C)[nH]c6c5)cc4C3)c2C1 (stereo unspecified) |
| 0.01 to 0.05 | COc1ccc(-c2ccc3c(c2)CN(c2nc(CN(C)C)nc4c2CC(C)(C)CC4)CCO3)cc1OC |
| ≤ 0.01 | CC1CCc2c(ncnc2N2CCOc3ccc(-c4cnc5nc(N)[nH]c5c4)cc3C2)C1 (stereo unspecified) |
| 0.01 to 0.05 | Cc1nc2ccc(-c3ccc4c(c3)CN(c3nc(CO)nc(C)c3C(C)C)CCO4)cc2[nH]1 |
| ≤ 0.01 | COc1ncc(-c2ccc3c(c2)CN(c2ncnc4c2CC(C)(C)CC4)CCO3)cc1NS(C)(=O)=O |
| ≤ 0.01 | Nc1nc2ncc(-c3ccc4c(c3)CN(c3ncnc5cc(Cl)c(Br)cc35)CCO4)cc2[nH]1 |
| ≤ 0.01 | Cc1nc2ncc(-c3ccc4c(c3)CN(c3nc(CN(C)C)nc(C)c3CC3CC3)CCO4)cc2[nH]1 |
| ≤ 0.01 | Cc1nc(CNCCF)nc(N2CCOc3ccc(-c4cnc5sc(N)nc5c4)cc3C2)c1C(C)C |
| ≤ 0.01 | Cc1nc(CN(C)C)nc(N2CCOc3ccc(-c4cnc5sc(N)nc5c4)cc3C2)c1CC1CC1 |
| ≤ 0.01 | CCNc1nc2ccc(-c3ccc4c(c3)CN(c3cc(C)nc5ccccc35)CCO4)cc2[nH]1 |
| ≤ 0.01 | Cc1nc2ccc(-c3ccc4c(c3)CN(c3ccnc(C)c3Cc3cccc(F)c3)CCO4)cc2[nH]1 |
| ≤ 0.01 | CC1(C)CCc2ncnc(N3CCOc4ccc(-c5cnc(N)c(S(=O)(=O)NCCCO)c5)cc4C3)c2C1 |
